ChEMBL document CHEMBL3044945, “Synthesis of 1,3,5-trisubstituted pyrazoline nucleus containing compounds and screening for antimicrobial activity” (2012)
≈ marks a conversion by molar mass, not a printed value.

Key:
Type in all cases: functional
Micrococcus luteus [1] = assay: Antibacterial activity against Micrococcus luteus MTCC 1538 at 500 ug/ml after 48 hr by cup-plate method; settings: MTCC 1538, 48 h, read-out: DIZ
Bacillus subtilis [2] = assay: Antibacterial activity against Bacillus subtilis MTCC 441 at 1250 ug/ml after 48 hr by cup-plate method; settings: MTCC 441, 48 h, read-out: DIZ
Pseudomonas fluorescens [3] = assay: Antibacterial activity against Pseudomonas fluorescens MTCC 2421 at 500 ug/ml after 48 hr by cup-plate method; settings: MTCC 2421, 48 h, read-out: DIZ
Bacillus subtilis [4] = assay: Antibacterial activity against Bacillus subtilis MTCC 441 at 500 ug/ml after 48 hr by cup-plate method; settings: MTCC 441, 48 h, read-out: DIZ
Staphylococcus aureus [5] = assay: Antibacterial activity against Staphylococcus aureus MTCC 1430 after 24 to 48 hr by tube dilution method
Bacillus subtilis [6] = assay: Antibacterial activity against Bacillus subtilis MTCC 441 at 100 ug/ml after 48 hr by cup-plate method; settings: MTCC 441, 48 h, read-out: DIZ
Penicillium chrysogenum [7] = assay: Antifungal activity against Penicillium chrysogenum MTCC 161 at 250 ug/ml after 48 hr by cup-plate method; settings: MTCC 161, 48 h, read-out: DIZ
Bacillus subtilis [8] = assay: Antibacterial activity against Bacillus subtilis MTCC 441 after 24 to 48 hr by tube dilution method
Bacillus pumilus [9] = assay: Antibacterial activity against Bacillus pumilus MTCC 1456 at 500 ug/ml after 48 hr by cup-plate method; settings: MTCC 1456, 48 h, read-out: DIZ
Pseudomonas fluorescens [10] = assay: Antibacterial activity against Pseudomonas fluorescens MTCC 2421 at 1000 ug/ml after 48 hr by cup-plate method; settings: MTCC 2421, 48 h, read-out: DIZ
Escherichia coli [11] = assay: Antibacterial activity against Escherichia coli MTCC 1573 after 24 to 48 hr by tube dilution method
Escherichia coli [12] = assay: Antibacterial activity against Escherichia coli MTCC 1573 at 1250 ug/ml after 48 hr by cup-plate method; settings: MTCC 1573, 48 h, read-out: DIZ
Penicillium chrysogenum [13] = assay: Antifungal activity against Penicillium chrysogenum MTCC 161 at 1250 ug/ml after 48 hr by cup-plate method; settings: MTCC 161, 48 h, read-out: DIZ
Pseudomonas aeruginosa [14] = assay: Antibacterial activity against Pseudomonas aeruginosa MTCC 424 at 500 ug/ml after 48 hr by cup-plate method; settings: MTCC 424, 48 h, read-out: DIZ
Bacillus pumilus [15] = assay: Antibacterial activity against Bacillus pumilus MTCC 1456 after 24 to 48 hr by tube dilution method
Staphylococcus aureus [16] = assay: Antibacterial activity against Staphylococcus aureus MTCC 1430 at 1000 ug/ml after 48 hr by cup-plate method; settings: MTCC 1430, 48 h, read-out: DIZ
Escherichia coli [17] = assay: Antibacterial activity against Escherichia coli MTCC 1573 at 500 ug/ml after 48 hr by cup-plate method; settings: MTCC 1573, 48 h, read-out: DIZ
Micrococcus luteus [18] = assay: Antibacterial activity against Micrococcus luteus MTCC 1538 at 250 ug/ml after 48 hr by cup-plate method; settings: MTCC 1538, 48 h, read-out: DIZ
Escherichia coli [19] = assay: Antibacterial activity against Escherichia coli MTCC 1573 at 100 ug/ml after 48 hr by cup-plate method; settings: MTCC 1573, 48 h, read-out: DIZ
Penicillium chrysogenum [20] = assay: Antifungal activity against Penicillium chrysogenum MTCC 161 at 1000 ug/ml after 48 hr by cup-plate method; settings: MTCC 161, 48 h, read-out: DIZ
Aspergillus niger [21] = assay: Antifungal activity against Aspergillus niger MTCC 2546 at 250 ug/ml after 48 hr by cup-plate method; settings: MTCC 2546, 48 h, read-out: DIZ
Staphylococcus aureus [22] = assay: Antibacterial activity against Staphylococcus aureus MTCC 1430 at 1250 ug/ml after 48 hr by cup-plate method; settings: MTCC 1430, 48 h, read-out: DIZ
Micrococcus luteus [23] = assay: Antibacterial activity against Micrococcus luteus MTCC 1538 at 1000 ug/ml after 48 hr by cup-plate method; settings: MTCC 1538, 48 h, read-out: DIZ
Pseudomonas aeruginosa [24] = assay: Antibacterial activity against Pseudomonas aeruginosa MTCC 424 at 750 ug/ml after 48 hr by cup-plate method; settings: MTCC 424, 48 h, read-out: DIZ
Bacillus pumilus [25] = assay: Antibacterial activity against Bacillus pumilus MTCC 1456 at 1000 ug/ml after 48 hr by cup-plate method; settings: MTCC 1456, 48 h, read-out: DIZ
Bacillus pumilus [26] = assay: Antibacterial activity against Bacillus pumilus MTCC 1456 at 750 ug/ml after 48 hr by cup-plate method; settings: MTCC 1456, 48 h, read-out: DIZ
Penicillium chrysogenum [27] = assay: Antifungal activity against Penicillium chrysogenum MTCC 161 after 24 to 48 hr by tube dilution method
Pseudomonas aeruginosa [28] = assay: Antibacterial activity against Pseudomonas aeruginosa MTCC 424 at 250 ug/ml after 48 hr by cup-plate method; settings: MTCC 424, 48 h, read-out: DIZ
Aspergillus niger [29] = assay: Antifungal activity against Aspergillus niger MTCC 2546 at 500 ug/ml after 48 hr by cup-plate method; settings: MTCC 2546, 48 h, read-out: DIZ
Micrococcus luteus [30] = assay: Antibacterial activity against Micrococcus luteus MTCC 1538 at 1250 ug/ml after 48 hr by cup-plate method; settings: MTCC 1538, 48 h, read-out: DIZ
Pseudomonas fluorescens [31] = assay: Antibacterial activity against Pseudomonas fluorescens MTCC 2421 at 250 ug/ml after 48 hr by cup-plate method; settings: MTCC 2421, 48 h, read-out: DIZ
Aspergillus niger [32] = assay: Antifungal activity against Aspergillus niger MTCC 2546 after 24 to 48 hr by tube dilution method
Micrococcus luteus [33] = assay: Antibacterial activity against Micrococcus luteus MTCC 1538 after 24 to 48 hr by tube dilution method
Escherichia coli [34] = assay: Antibacterial activity against Escherichia coli MTCC 1573 at 1000 ug/ml after 48 hr by cup-plate method; settings: MTCC 1573, 48 h, read-out: DIZ
Pseudomonas aeruginosa [35] = assay: Antibacterial activity against Pseudomonas aeruginosa MTCC 424 at 100 ug/ml after 48 hr by cup-plate method; settings: MTCC 424, 48 h, read-out: DIZ
Staphylococcus aureus [36] = assay: Antibacterial activity against Staphylococcus aureus MTCC 1430 at 500 ug/ml after 48 hr by cup-plate method; settings: MTCC 1430, 48 h, read-out: DIZ
Aspergillus niger [37] = assay: Antifungal activity against Aspergillus niger MTCC 2546 at 1000 ug/ml after 48 hr by cup-plate method; settings: MTCC 2546, 48 h, read-out: DIZ
Pseudomonas fluorescens [38] = assay: Antibacterial activity against Pseudomonas fluorescens MTCC 2421 at 750 ug/ml after 48 hr by cup-plate method; settings: MTCC 2421, 48 h, read-out: DIZ
Pseudomonas aeruginosa [39] = assay: Antibacterial activity against Pseudomonas aeruginosa MTCC 424 at 1250 ug/ml after 48 hr by cup-plate method; settings: MTCC 424, 48 h, read-out: DIZ
Staphylococcus aureus [40] = assay: Antibacterial activity against Staphylococcus aureus MTCC 1430 at 750 ug/ml after 48 hr by cup-plate method; settings: MTCC 1430, 48 h, read-out: DIZ
Bacillus subtilis [41] = assay: Antibacterial activity against Bacillus subtilis MTCC 441 at 750 ug/ml after 48 hr by cup-plate method; settings: MTCC 441, 48 h, read-out: DIZ
Penicillium chrysogenum [42] = assay: Antifungal activity against Penicillium chrysogenum MTCC 161 at 500 ug/ml after 48 hr by cup-plate method; settings: MTCC 161, 48 h, read-out: DIZ
Bacillus pumilus [43] = assay: Antibacterial activity against Bacillus pumilus MTCC 1456 at 250 ug/ml after 48 hr by cup-plate method; settings: MTCC 1456, 48 h, read-out: DIZ
Pseudomonas fluorescens [44] = assay: Antibacterial activity against Pseudomonas fluorescens MTCC 2421 at 100 ug/ml after 48 hr by cup-plate method; settings: MTCC 2421, 48 h, read-out: DIZ

In the case of `O=[N+]([O-])c1ccc(C2CC(c3cccc4ccccc34)=NN2c2ccccc2)cc1` (centres undefined), the zone of inhibition at 500 µg/mL (Micrococcus luteus [1]) is reported as 9 mm, the zone of inhibition at 1250 µg/mL (Bacillus subtilis [2]) is reported as 21 mm and the zone of inhibition at 500 µg/mL (Pseudomonas fluorescens [3]) is reported as 10 mm. For the same compound, the zone of inhibition at 500 µg/mL (Bacillus subtilis [4]) was 15 mm, the MIC (Staphylococcus aureus [5]) was 150 µg/mL (≈ 381 µM) and the zone of inhibition at 100 µg/mL (Bacillus subtilis [6]) was 12 mm. The zone of inhibition at 250 µg/mL (Penicillium chrysogenum [7]) was 12 mm, the MIC (Bacillus subtilis [8]) was 50 µg/mL (≈ 127 µM) and the zone of inhibition at 500 µg/mL (Bacillus pumilus [9]) was 10 mm. For the same compound, the zone of inhibition at 1000 µg/mL (Pseudomonas fluorescens [10]) was 16 mm, the MIC (Escherichia coli [11]) was 50 µg/mL (≈ 127 µM) and the zone of inhibition at 1250 µg/mL (Escherichia coli [12]) was 18 mm. It also gave a zone of inhibition at 1250 µg/mL (Penicillium chrysogenum [13]) of 18 mm, a zone of inhibition at 500 µg/mL (Pseudomonas aeruginosa [14]) of 12 mm and an MIC (Bacillus pumilus [15]) of 150 µg/mL (≈ 381 µM). It also gave a zone of inhibition at 1000 µg/mL (Staphylococcus aureus [16]) of 15 mm, a zone of inhibition at 500 µg/mL (Escherichia coli [17]) of 11 mm and a zone of inhibition at 250 µg/mL (Micrococcus luteus [18]) of 8 mm. It also gave a zone of inhibition at 100 µg/mL (Escherichia coli [19]) of 9 mm, a zone of inhibition at 1000 µg/mL (Penicillium chrysogenum [20]) of 16 mm and a zone of inhibition at 250 µg/mL (Aspergillus niger [21]) of 12 mm. For the same compound, the zone of inhibition at 1250 µg/mL (Staphylococcus aureus [22]) was 18 mm, the zone of inhibition at 1000 µg/mL (Micrococcus luteus [23]) was 13 mm and the zone of inhibition at 750 µg/mL (Pseudomonas aeruginosa [24]) was 14 mm. The zone of inhibition at 1000 µg/mL (Bacillus pumilus [25]) was 16 mm, the zone of inhibition at 750 µg/mL (Bacillus pumilus [26]) was 14 mm and the MIC (Penicillium chrysogenum [27]) was 30 µg/mL (≈ 76.2 µM). For the same compound, the zone of inhibition at 250 µg/mL (Pseudomonas aeruginosa [28]) was 10 mm, the zone of inhibition at 500 µg/mL (Aspergillus niger [29]) was 13 mm and the zone of inhibition at 1250 µg/mL (Micrococcus luteus [30]) was 17 mm. It also gave a zone of inhibition at 250 µg/mL (Pseudomonas fluorescens [31]) of 9 mm, an MIC (Aspergillus niger [32]) of 30 µg/mL (≈ 76.2 µM) and an MIC (Micrococcus luteus [33]) of 200 µg/mL (≈ 508 µM). For the same compound, the zone of inhibition at 1000 µg/mL (Escherichia coli [34]) was 15 mm, the zone of inhibition at 100 µg/mL (Pseudomonas aeruginosa [35]) was 9 mm and the zone of inhibition at 500 µg/mL (Staphylococcus aureus [36]) was 11 mm. The zone of inhibition at 1000 µg/mL (Aspergillus niger [37]) was 21 mm, the zone of inhibition at 750 µg/mL (Pseudomonas fluorescens [38]) was 13 mm and the zone of inhibition at 1250 µg/mL (Pseudomonas aeruginosa [39]) was 20 mm. It also gave a zone of inhibition at 750 µg/mL (Staphylococcus aureus [40]) of 12 mm, a zone of inhibition at 750 µg/mL (Bacillus subtilis [41]) of 17 mm and a zone of inhibition at 500 µg/mL (Penicillium chrysogenum [42]) of 13 mm. For the same compound, the zone of inhibition at 250 µg/mL (Bacillus pumilus [43]) was 9 mm and the zone of inhibition at 100 µg/mL (Pseudomonas fluorescens [44]) was 8 mm.
